Data: US12435046B2, “Alkynyl quinazoline compounds” (Black Diamond Therapeutics, Inc., priority 2019, dated 2025)

How the values were obtained:
Assay type in all cases: cell-based
Details in all cases: Table A; BaF3 cells, 3 days
[1] = target: T1, HER2 YVMA (Homo sapiens, UniProt P04626, INS775YVMA); test: BaF3 cell proliferation assay (CellTiterGlo), HER2 YVMA
T1 construct: expressed in transfected cells; host or cells: BaF3 (murine pro-B) cells

[2] = target: T2, EGFR V3 (Homo sapiens, UniProt P00533, DELINS30-297G); test: BaF3 cell proliferation assay (CellTiterGlo), EGFR V3
T2 construct: expressed in transfected cells; host or cells: BaF3 (murine pro-B) cells, retroviral transduction with pMXs-IRES-Blasticidin
Outline: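 BaF3 cells made IL-3-independent by retroviral expression of each EGFR or HER2 mutant were treated in triplicate with compound for 72 h. Viability was read by CellTiterGlo ATP luminescence and normalised to vehicle, and EC50 was fitted from dose-response curves.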

[3] = target: T3, HER2 S310F (Homo sapiens, UniProt P04626, S310F); test: BaF3 cell proliferation assay (CellTiterGlo), HER2 S310F
T3 construct: expressed in transfected cells; host or cells: BaF3 (murine pro-B) cells

[4] = target: T4, EGFR NPH (Homo sapiens, UniProt P00533, INS773NPH); test: BaF3 cell proliferation assay (CellTiterGlo), EGFR NPH
T4 construct: expressed in transfected cells; host or cells: BaF3 (murine pro-B) cells, retroviral transduction with pMXs-IRES-Blasticidin
Procedure: (§1) Retroviral Production: EGFR mutants were subcloned into pMXs-IRES-Blasticidin (RTV-016, Cell Biolabs, San Diego, CA). Retroviral expression vector retrovirus was produced by transient transfection of HEK 293T cells with the retroviral EGFR mutant expression vector pMXs-IRES-Blasticidin (RTV-016, Cell Biolabs), pCMV-Gag-Pol vector and pCMV-VSV-G-Envelope vector. Briefly, HEK 293T/17 cells were plated in 100 mm collagen coated plate (354450, Corning Life Sciences, Tewksbury, MA) (4×10^5 per plate) and incubated overnight. The next day, retroviral plasmids (3 ng of EGFR mutant, 1.0 ng of pCMV-Gag-Pol and 0.5 ng pCMV-VSV-G) were mixed in 500 n1 of Optimem (31985, Life Technologies). The mixture was incubated at room temperature for 5 min and then added to Optimem containing transfection reagent Lipofectamine (11668, Invitrogen) and incubated for 20 minutes. Mixture was then added dropwise to HEK 293T cells. The next day the medium was replaced with fresh culture medium and retrovirus was harvested @ 24 and 48 hrs.
(§2) Generation of EGFR mutant stable cell lines: BaF3 cells (1.5E5 cells) were infected with 1 ml of viral supernatant supplemented with 8 ng/ml polybrene by centrifuging for 30 min at 1000 rpm. Cells were placed in a 37° C. incubator overnight. Cells were then spun for 5 minutes to pellet the cells. Supernatant was removed and cells re-infected a fresh 1 ml of viral supernatant supplemented with 8 ng/ml polybrene by centrifuging for 30 min at 1000 rpm. Cells were placed in 37° C. incubator overnight. Cells were then maintained in RPMI containing 10% Heat Inactivated FBS, 2% L-glutamine containing 10 ng/ml IL-3. After 48 hours cells were selected for retroviral infection in 10 […] for one week. Blasticidin resistant populations were washed twice in phosphate buffered saline before plating in media lacking IL-3 to select for IL-3 independent growth.
(§3) Assay for cell proliferation: BaF3 cell lines were resuspended at 1.3E5 c/ml in RPMI containing 10% Heat Inactivated FBS, 2% L-glutamine and 1% Pen/Strep and dispensed in triplicate (17.5E4 c/well) into 96 well plates. To determine the effect of drug on cell proliferation, cells incubated for 3 days in the presence of vehicle control or test drug at varying concentrations. Inhibition of cell growth was determined by luminescent quantification of intracellular ATP content using CellTiterGlo (Promega), according to the protocol provided by the manufacturer. Comparison of cell number on day 0 versus 72 hours post drug treatment was used to plot dose-response curves. The number of viable cells was determined and normalized to vehicle-treated controls. Inhibition of proliferation, relative to vehicle-treated controls was expressed as a fraction of 1 and graphed using PRISM® software (Graphpad Software, San Diego, CA). EC50 values were determined with the same application.

[5] = target: T5, EGFR wt (Homo sapiens, UniProt P00533); test: BaF3 cell proliferation assay (CellTiterGlo), EGFR wt
T5 construct: expressed in transfected cells; host or cells: BaF3 (murine pro-B) cells, retroviral transduction with pMXs-IRES-Blasticidin
Outline: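 BaF3 cells engineered by retroviral transduction to express EGFR and selected for blasticidin resistance and IL-3 independent growth were suspended at 1.3E5 c/ml in RPMI with 10% heat inactivated FBS, 2% L-glutamine and 1% Pen/Strep. They were plated in triplicate in 96 well plates and exposed to vehicle or varying drug concentrations for 3 days. Viability was quantified by CellTiterGlo ATP luminescence, normalized to vehicle, and curves fitted in PRISM.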

[6] = target: T6, EGFR SVD (Homo sapiens, UniProt P00533, INS770SVD); test: BaF3 cell proliferation assay (CellTiterGlo), EGFR SVD
T6 construct: expressed in transfected cells; host or cells: BaF3 (murine pro-B) cells, retroviral transduction with pMXs-IRES-Blasticidin
Procedure: as §1, §2, §3

T5 sequence (P00533 25-1210): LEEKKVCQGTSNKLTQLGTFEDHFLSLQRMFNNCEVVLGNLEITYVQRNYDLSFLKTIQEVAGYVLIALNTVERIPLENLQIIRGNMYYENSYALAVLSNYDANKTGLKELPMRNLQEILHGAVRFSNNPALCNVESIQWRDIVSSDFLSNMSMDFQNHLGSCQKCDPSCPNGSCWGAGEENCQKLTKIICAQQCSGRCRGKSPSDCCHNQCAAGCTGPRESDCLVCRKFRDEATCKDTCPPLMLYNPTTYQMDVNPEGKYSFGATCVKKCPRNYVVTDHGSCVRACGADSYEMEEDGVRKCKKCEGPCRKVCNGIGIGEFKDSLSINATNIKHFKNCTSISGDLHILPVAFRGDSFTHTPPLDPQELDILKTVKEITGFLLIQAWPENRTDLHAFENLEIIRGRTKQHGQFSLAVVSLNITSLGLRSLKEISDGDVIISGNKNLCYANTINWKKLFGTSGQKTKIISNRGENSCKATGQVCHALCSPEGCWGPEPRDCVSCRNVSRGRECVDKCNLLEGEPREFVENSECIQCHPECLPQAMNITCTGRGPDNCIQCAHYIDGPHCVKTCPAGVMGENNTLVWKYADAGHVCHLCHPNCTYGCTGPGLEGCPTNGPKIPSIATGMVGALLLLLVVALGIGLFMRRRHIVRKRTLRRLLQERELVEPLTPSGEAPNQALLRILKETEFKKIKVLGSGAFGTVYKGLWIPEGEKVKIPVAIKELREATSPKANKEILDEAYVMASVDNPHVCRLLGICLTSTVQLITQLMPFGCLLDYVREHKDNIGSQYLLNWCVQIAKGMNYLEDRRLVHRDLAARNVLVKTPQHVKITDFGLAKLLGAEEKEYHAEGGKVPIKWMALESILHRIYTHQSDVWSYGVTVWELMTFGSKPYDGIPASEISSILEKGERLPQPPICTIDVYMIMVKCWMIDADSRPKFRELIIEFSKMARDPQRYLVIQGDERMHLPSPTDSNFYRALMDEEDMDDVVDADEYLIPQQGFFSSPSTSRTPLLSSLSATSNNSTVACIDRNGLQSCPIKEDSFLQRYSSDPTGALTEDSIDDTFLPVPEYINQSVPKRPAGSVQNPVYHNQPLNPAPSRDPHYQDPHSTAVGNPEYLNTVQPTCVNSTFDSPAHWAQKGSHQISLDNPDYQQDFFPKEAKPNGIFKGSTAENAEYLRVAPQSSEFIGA
T1 sequence (P04626 with tags, fused parts or gaps INS775YVMA): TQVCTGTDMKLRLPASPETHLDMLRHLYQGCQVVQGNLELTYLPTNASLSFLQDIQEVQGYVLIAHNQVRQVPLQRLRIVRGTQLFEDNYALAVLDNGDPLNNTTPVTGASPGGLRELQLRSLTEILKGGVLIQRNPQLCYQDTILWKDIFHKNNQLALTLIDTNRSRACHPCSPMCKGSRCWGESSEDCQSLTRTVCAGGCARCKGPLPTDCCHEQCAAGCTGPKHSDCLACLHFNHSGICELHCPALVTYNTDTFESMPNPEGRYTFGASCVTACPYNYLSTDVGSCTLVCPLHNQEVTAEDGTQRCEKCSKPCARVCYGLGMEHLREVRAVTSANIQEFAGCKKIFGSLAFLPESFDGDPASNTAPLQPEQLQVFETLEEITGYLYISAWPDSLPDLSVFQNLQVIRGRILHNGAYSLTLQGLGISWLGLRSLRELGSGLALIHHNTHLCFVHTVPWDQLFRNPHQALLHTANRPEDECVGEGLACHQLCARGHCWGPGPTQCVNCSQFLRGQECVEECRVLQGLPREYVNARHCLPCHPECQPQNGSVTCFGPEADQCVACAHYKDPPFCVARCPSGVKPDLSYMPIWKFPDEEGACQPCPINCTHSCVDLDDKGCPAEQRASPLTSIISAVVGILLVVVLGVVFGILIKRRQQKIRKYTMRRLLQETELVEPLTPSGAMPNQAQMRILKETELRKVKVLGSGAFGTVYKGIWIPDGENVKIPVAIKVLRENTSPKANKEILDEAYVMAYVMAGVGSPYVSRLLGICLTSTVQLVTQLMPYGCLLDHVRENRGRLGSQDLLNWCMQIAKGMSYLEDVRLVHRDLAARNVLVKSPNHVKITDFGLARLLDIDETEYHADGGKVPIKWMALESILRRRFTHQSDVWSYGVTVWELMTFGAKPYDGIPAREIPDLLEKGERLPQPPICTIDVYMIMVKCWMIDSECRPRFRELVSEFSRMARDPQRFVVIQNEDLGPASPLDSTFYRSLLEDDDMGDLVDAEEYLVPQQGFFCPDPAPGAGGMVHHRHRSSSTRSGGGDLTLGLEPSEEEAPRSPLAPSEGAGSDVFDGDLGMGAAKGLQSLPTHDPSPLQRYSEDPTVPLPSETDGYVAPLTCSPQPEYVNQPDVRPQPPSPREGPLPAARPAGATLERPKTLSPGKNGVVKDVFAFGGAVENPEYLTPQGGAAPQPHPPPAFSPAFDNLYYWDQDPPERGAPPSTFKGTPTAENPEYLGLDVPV
T2 sequence (P00533 with tags, fused parts or gaps DELINS30-297G): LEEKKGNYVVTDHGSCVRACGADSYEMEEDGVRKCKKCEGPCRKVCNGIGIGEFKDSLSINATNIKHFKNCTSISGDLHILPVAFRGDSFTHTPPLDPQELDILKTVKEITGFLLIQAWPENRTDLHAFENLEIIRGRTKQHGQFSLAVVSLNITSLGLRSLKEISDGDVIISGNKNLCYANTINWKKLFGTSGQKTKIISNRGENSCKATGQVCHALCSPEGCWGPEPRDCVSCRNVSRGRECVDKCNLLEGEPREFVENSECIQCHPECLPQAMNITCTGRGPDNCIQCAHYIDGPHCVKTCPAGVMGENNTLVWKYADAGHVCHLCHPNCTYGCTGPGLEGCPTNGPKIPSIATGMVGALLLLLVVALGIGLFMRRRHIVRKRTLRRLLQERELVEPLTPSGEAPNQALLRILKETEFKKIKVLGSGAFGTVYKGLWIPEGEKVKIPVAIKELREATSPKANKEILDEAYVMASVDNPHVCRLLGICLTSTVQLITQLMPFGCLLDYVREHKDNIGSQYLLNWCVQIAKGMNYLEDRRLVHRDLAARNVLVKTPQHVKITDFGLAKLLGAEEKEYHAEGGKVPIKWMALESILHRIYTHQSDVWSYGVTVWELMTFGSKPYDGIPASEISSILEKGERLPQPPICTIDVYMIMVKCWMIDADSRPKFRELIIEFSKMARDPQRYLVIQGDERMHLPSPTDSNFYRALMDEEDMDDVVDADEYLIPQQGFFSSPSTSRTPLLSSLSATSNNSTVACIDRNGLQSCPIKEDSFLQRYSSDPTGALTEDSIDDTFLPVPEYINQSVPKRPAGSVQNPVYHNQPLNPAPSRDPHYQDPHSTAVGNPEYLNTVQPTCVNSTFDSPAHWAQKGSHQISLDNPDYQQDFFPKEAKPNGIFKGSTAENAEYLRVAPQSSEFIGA
T3 sequence (P04626 23-1255 S310F): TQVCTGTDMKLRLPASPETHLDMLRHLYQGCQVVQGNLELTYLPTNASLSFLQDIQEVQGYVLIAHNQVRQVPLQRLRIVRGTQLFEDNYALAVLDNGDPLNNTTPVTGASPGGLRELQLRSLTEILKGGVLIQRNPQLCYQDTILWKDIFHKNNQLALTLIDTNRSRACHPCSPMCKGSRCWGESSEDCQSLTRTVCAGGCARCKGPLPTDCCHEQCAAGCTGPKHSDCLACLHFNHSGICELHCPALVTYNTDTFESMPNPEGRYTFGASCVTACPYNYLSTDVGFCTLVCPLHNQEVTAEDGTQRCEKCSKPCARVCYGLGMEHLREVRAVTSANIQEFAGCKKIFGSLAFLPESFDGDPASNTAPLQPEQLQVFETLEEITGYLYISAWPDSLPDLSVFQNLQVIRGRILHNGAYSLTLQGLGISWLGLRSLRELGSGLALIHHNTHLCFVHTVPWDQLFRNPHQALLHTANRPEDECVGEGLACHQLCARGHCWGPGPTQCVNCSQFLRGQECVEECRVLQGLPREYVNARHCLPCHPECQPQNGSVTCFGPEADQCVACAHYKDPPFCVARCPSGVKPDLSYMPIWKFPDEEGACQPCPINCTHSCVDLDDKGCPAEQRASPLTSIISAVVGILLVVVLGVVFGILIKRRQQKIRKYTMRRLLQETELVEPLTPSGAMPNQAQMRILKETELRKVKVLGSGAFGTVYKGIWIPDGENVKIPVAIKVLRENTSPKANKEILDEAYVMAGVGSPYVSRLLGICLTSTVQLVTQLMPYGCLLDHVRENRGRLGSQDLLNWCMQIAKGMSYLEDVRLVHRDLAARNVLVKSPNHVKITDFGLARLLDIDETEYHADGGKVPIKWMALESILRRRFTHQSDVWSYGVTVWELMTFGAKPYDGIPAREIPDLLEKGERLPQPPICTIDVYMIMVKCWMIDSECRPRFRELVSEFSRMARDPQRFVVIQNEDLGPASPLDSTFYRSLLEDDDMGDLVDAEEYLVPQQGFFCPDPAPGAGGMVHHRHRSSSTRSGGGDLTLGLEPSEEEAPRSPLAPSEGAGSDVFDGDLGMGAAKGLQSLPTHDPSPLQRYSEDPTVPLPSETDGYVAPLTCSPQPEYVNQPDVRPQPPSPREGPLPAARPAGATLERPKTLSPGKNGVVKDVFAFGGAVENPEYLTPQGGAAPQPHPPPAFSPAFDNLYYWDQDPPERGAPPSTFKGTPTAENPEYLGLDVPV

SMILES | IC50 [1] [µM] | IC50 [2] [µM] | IC50 [3] [µM] | IC50 [4] [µM] | IC50 [5] [µM] | IC50 [6] [µM]
C=CC(=O)Nc1cc2c(Nc3cccc(Cl)c3F)ncnc2cc1C#CC1(C)CCN(C)C1 (centres unmarked) [Compound 1, N-(4-((3-chloro-2-fluorophenyl)amino)-7-((1,3-dimethylpyrrolidin-3-yl)ethynyl)quinazolin-6-yl)acrylamide] | 0.1 to 0.5 | ≤ 0.05 | 0.05 to 0.1 | 0.05 to 0.1 | 0.05 to 0.1 | 0.1 to 0.5
C=CC(=O)Nc1cc2c(Nc3ccc(Oc4ccccc4)cc3)ncnc2cc1C#C[C@]12C[C@H]1CN(C)C2 [Compound 41, N-(7-(((1S,5R)-3-methyl-3-azabicyclo[3.1.0]hexan-1-yl)ethynyl)-4-((4-phenoxyphenyl)amino)quinazolin-6-yl)acrylamide] | ≤ 0.05 | ≤ 0.05 | – | 0.1 to 0.5 | 0.1 to 0.5 | 0.1 to 0.5
C=CC(=O)Nc1cc2c(Nc3cccc(Cl)c3F)ncnc2cc1C#CC1(C)CCCN(C)C1 (centres unmarked) [Compound 66, N-(4-((3-chloro-2-fluorophenyl)amino)-7-((1,3-dimethylpiperidin-3-yl)ethynyl)quinazolin-6-yl)acrylamide] | > 0.5 | ≤ 0.05 | 0.1 to 0.5 | – | > 0.5 | –
C=CC(=O)Nc1cc2c(Nc3ccc(OCc4ccccn4)c(Cl)c3)ncnc2cc1C#CC1(C)CCCN(C)C1 (centres unmarked) [Compound 67, N-(4-((3-chloro-4-(pyridin-2-ylmethoxy)phenyl)amino)-7-((1,3-dimethylpiperidin-3-yl)ethynyl)quinazolin-6-yl)acrylamide] | 0.1 to 0.5 | 0.05 to 0.1 | ≤ 0.05 | – | > 0.5 | –
C=CC(=O)Nc1cc2c(Nc3cccc(Cl)c3F)ncnc2cc1C#CC1(C)CCN(CC(F)(F)F)C1 (centres unmarked) [Compound 68, N-(4-((3-chloro-2-fluorophenyl)amino)-7-((3-methyl-1-(2,2,2-trifluoroethyl)-pyrrolidin-3-yl)ethynyl)quinazolin-6-yl)acrylamide] | > 0.5 | 0.1 to 0.5 | > 0.5 | – | > 0.5 | –
C=CC(=O)Nc1cc2c(Nc3cccc(Cl)c3F)ncnc2cc1C#CC1(C)CCN(C2COC2)C1 (centres unmarked) [Compound 69, N-(4-((3-chloro-2-fluorophenyl)amino)-7-((3-methyl-1-(oxetan-3-yl)pyrrolidin-3-yl)ethynyl)quinazolin-6-yl)acrylamide] | > 0.5 | ≤ 0.05 | 0.1 to 0.5 | – | 0.1 to 0.5 | –
CC#CC(=O)Nc1cc2c(Nc3ccc(OCc4ccccn4)c(Cl)c3)ncnc2cc1C#CC1(C)CCN(C)C1 (centres unmarked) [Compound 70, N-(4-((3-chloro-4-(pyridin-2-ylmethoxy)phenyl)amino)-7-((1,3-dimethylpyrrolidin-3-yl)ethynyl)quinazolin-6-yl)but-2-ynamide] | ≤ 0.05 | ≤ 0.05 | ≤ 0.05 | – | 0.05 to 0.1 | –
C=CC(=O)Nc1cc2c(Nc3ccc(OCc4ccccn4)c(Cl)c3)ncnc2cc1C#CC12CCC(CC1)N2C [Compound 71, N-(4-((3-chloro-4-(pyridin-2-ylmethoxy)phenyl)amino)-7-((7-methyl-7-azabicyclo[2.2.1]heptan-1-yl)ethynyl)quinazolin-6-yl)acrylamide] | 0.1 to 0.5 | ≤ 0.05 | ≤ 0.05 | – | > 0.5 | –
C=CC(=O)Nc1cc2c(Nc3ccc(OCc4ccccn4)c(Cl)c3)ncnc2cc1C#CC1(C)CCN(C)CC1 [Compound 72, N-(4-((3-chloro-4-(pyridin-2-ylmethoxy)phenyl)amino)-7-((1,4-dimethylpiperidin-4-yl)ethynyl)quinazolin-6-yl)acrylamide] | 0.05 to 0.1 | ≤ 0.05 | ≤ 0.05 | – | > 0.5 | –
C=CC(=O)Nc1cc2c(Nc3ccc(O)c(Cl)c3)ncnc2cc1C#C[C@@H]1[C@H]2CN(C)C[C@@H]12 [Compound 73, N-(4-((3-chloro-4-hydroxyphenyl)amino)-7-(((1R,5S,6s)-3-methyl-3-azabicyclo[3.1.0]hexan-6-yl)ethynyl)quinazolin-6-yl)acrylamide] | 0.1 to 0.5 | ≤ 0.05 | ≤ 0.05 | – | 0.05 to 0.1 | –
CC#CC(=O)Nc1cc2c(Nc3cccc(Cl)c3F)ncnc2cc1C#C[C@@H]1[C@H]2CN(C)C[C@@H]12 [Compound 74, N-(4-((3-chloro-2-fluorophenyl)amino)-7-(((1R,5S,6s)-3-methyl-3-azabicyclo[3.1.0]hexan-6-yl)ethynyl)quinazolin-6-yl)but-2-ynamide] | > 0.5 | ≤ 0.05 | 0.05 to 0.1 | – | 0.1 to 0.5 | –
C=CC(=O)Nc1cc2c(Nc3cc(Cl)ccc3F)ncnc2cc1C#C[C@@H]1[C@H]2CN(C)C[C@@H]12 [Compound 75, N-(4-((5-chloro-2-fluorophenyl)amino)-7-(((1R,5S,6s)-3-methyl-3-azabicyclo[3.1.0]hexan-6-yl)ethynyl)quinazolin-6-yl)acrylamide] | > 0.5 | ≤ 0.05 | 0.1 to 0.5 | – | 0.1 to 0.5 | –
C=CC(=O)Nc1cc2c(Nc3ccc(OCc4cccc(F)c4)c(Cl)c3)ncnc2cc1C#C[C@@H]1[C@H]2CN(C)C[C@@H]12 [Compound 76, N-(4-((3-chloro-4-((3-fluorobenzyl)oxy)-phenyl)amino)-7-(((1R,5S,6s)-3-methyl-3-azabicyclo[3.1.0]hexan-6-yl)ethynyl)quinazolin-6-yl)acrylamide] | 0.1 to 0.5 | 0.1 to 0.5 | 0.05 to 0.1 | – | > 0.5 | –
C=CC(=O)Nc1cc2c(Nc3cccc(Cl)c3F)ncnc2cc1C#CC1CCN(C)C1 (centres unmarked) [Compound 77, N-(4-((3-chloro-2-fluorophenyl)amino)-7-((1-methylpyrrolidin-3-yl)ethynyl)quinazolin-6-yl)acrylamide] | 0.1 to 0.5 | ≤ 0.05 | ≤ 0.05 | – | ≤ 0.05 | –
C=CC(=O)Nc1cc2c(Nc3cccc(Cl)c3F)ncnc2cc1C#C[C@@H]1[C@H]2CN(C)C[C@@H]12 [Compound 78, N-(4-((3-chloro-2-fluorophenyl)amino)-7-(((1R,5S,6s)-3-methyl-3-azabicyclo[3.1.0]hexan-6-yl)ethynyl)quinazolin-6-yl)acrylamide] | 0.1 to 0.5 | ≤ 0.05 | ≤ 0.05 | – | ≤ 0.05 | –
C=CC(=O)Nc1cc2c(Nc3ccc(OCc4ccccn4)c(Cl)c3)ncnc2cc1C#C[C@H]1[C@H]2CN(C)C[C@@H]12 [Compound 79, N-(4-((3-chloro-4-(pyridin-2-ylmethoxy)phenyl)amino)-7-(((1R,5S,6r)-3-methyl-3-azabicyclo[3.1.0]hexan-6-yl)ethynyl)quinazolin-6-yl)acrylamide] | > 0.5 | > 0.5 | > 0.5 | – | > 0.5 | –
C=CC(=O)Nc1cc2c(Nc3ccc(Cl)c(Cl)c3F)ncnc2cc1C#CC1C2COCC12 (centres unmarked) [Compound No. 80, N-(7-(3-oxabicyclo[3.1.0]hexan-6-ylethynyl)-4-((3,4-dichloro-2-fluorophenyl)amino)quinazolin-6-yl)acrylamide] | 0.1 to 0.5 | ≤ 0.05 | 0.05 to 0.1 | – | 0.05 to 0.1 | –
